The test system of this test is P388 leukemia ip, CD2F1 mice, survival T/C. Kind of test: NCI In Vivo Anticancer Drug Screen. Data for tumor model P388 Leukemia (intraperitoneal) in CD2F1 (CDF1) mice. The following applies: endpoint: median survival time, higher = longer survival. On the procedure:
The antitumor activity of compounds was measured in mice bearing transplantable tumors. Survival or tumor size were measured and the results are expressed as the measurement made in the treated group (T) divided by the measurement made in the vehicle treated control group (C). The tumor model used in this assay is P388 Leukemia (intraperitoneal) in CD2F1 (CDF1) mice

Where [1] appears, read: dose: 50.0 mg/kg/injection, schedule: Q01DX005 (ip), vehicle: saline with Tween-80.
Setting [2] is: dose: 100.0 mg/kg/injection, schedule: Q01DX005 (ip), vehicle: saline with Tween-80.
The mark [3] stands for this setting: dose: 200.0 mg/kg/injection, schedule: Q01DX005 (ip), vehicle: saline with Tween-80.
[4] abbreviates: dose: 50.0 mg/kg/injection, schedule: Q01DX009 (ip), vehicle: saline with Tween-80.
Setting [5] is: dose: 60.0 mg/kg/injection, schedule: Q01DX005 (ip), vehicle: saline with Tween-80.
[6] abbreviates: dose: 120.0 mg/kg/injection, schedule: Q01DX005 (ip), vehicle: saline with Tween-80.

“And” between values parts separate entries of the source, which are not always exact repeats. Identical values can stand only once. Inconclusive results and toxic doses are left out.

Results on 19 molecules are retold here after PubChem BioAssay AID330 (DTP/NCI, 2004).

In the case of `Oc1c(-c2ccccc2)cc(-[n+]2c(-c3ccccc3)cc(-c3ccccc3)cc2-c2ccccc2)cc1-c1ccccc1`, the T/C is, setting by setting: (dose: 0.38 mg/kg/injection, schedule: Q01DX009 (ip), vehicle: saline with Tween-80) 88 % of control; (dose: 0.75 mg/kg/injection, schedule: Q01DX009 (ip), vehicle: saline with Tween-80) 106 % of control; (dose: 1.5 mg/kg/injection, schedule: Q01DX009 (ip), vehicle: saline with Tween-80) 121 % of control; (dose: 3.0 mg/kg/injection, schedule: Q01DX009 (ip), vehicle: saline with Tween-80) 122 % of control.

Consider `Oc1ccc(O)c2c(O)c3ccccc3c(O)c12`, for which the T/C reads like this: under setting [1], 102 % of control; under setting [2], 107 % of control; under setting [3], 93 % of control.

Regarding `Cc1ccccc1C(=O)c1cc(Br)ccc1[N+](=O)[O-]`, the T/C is, setting by setting: (dose: 50.0 mg/kg/injection, schedule: Q01DX009 (ip), vehicle: saline) 91 % of control; (dose: 100.0 mg/kg/injection, schedule: Q01DX009 (ip), vehicle: saline) 100 % of control; (dose: 200.0 mg/kg/injection, schedule: Q01DX009 (ip), vehicle: saline) 100 % of control.

With `CC(=O)SCc1nc2ccccc2[nH]1`, the T/C reads like this: (dose: 25.0 mg/kg/injection, schedule: Q01DX009 (ip), vehicle: saline with Tween-80) 107 % of control; under setting [4], 105 % of control; (dose: 100.0 mg/kg/injection, schedule: Q01DX009 (ip), vehicle: saline with Tween-80) 108 % of control.

As for `O=c1[nH]c(=O)n([C@H]2CCCO2)cc1F`, the T/C (dose: 44.0 mg/kg/injection, schedule: Q01DX009 (ip), vehicle: Klucel (hydroxypropylcellulose) (HPC)) was 111 % of control; the T/C under setting [4] is 104 % of control; the T/C (dose: 59.0 mg/kg/injection, schedule: Q01DX009 (ip), vehicle: Klucel (hydroxypropylcellulose) (HPC)) was 114 % of control; the T/C (dose: 90.0 mg/kg/injection, schedule: Q01DX009 (ip), vehicle: Klucel (hydroxypropylcellulose) (HPC)) was 124 % of control; the T/C (dose: 142.0 mg/kg/injection, schedule: Q04DX003 (ip), vehicle: Klucel (hydroxypropylcellulose) (HPC)) is 109 % of control; the T/C (dose: 189.0 mg/kg/injection, schedule: Q04DX003 (ip), vehicle: Klucel (hydroxypropylcellulose) (HPC)) was 115 % of control. The T/C was 93 % of control (dose: 200.0 mg/kg/injection, schedule: Q01DX009 (ip), vehicle: saline with Tween-80); 95 % of control (dose: 201.0 mg/kg/injection, schedule: Q01DX009 (ip), vehicle: Klucel (hydroxypropylcellulose) (HPC)); 107 % of control (dose: 316.0 mg/kg/injection, schedule: Q01DX001 (ip), vehicle: Klucel (hydroxypropylcellulose) (HPC)); 115 % of control (dose: 421.0 mg/kg/injection, schedule: Q01DX001 (ip), vehicle: Klucel (hydroxypropylcellulose) (HPC)); 120 % of control (dose: 641.0 mg/kg/injection, schedule: Q01DX001 (ip), vehicle: Klucel (hydroxypropylcellulose) (HPC)); 120 % of control (dose: 645.0 mg/kg/injection, schedule: Q04DX003 (ip), vehicle: Klucel (hydroxypropylcellulose) (HPC)).

With `CCOC(=O)c1ccc(N=NN2CN3CN(C2)CN(N=Nc2ccc(C(=O)OCC)cc2)C3)cc1`, the T/C runs as follows: (dose: 25.0 mg/kg/injection, schedule: Q04DX002 (ip), vehicle: Klucel (hydroxypropylcellulose) (HPC)) 99 % of control; (dose: 50.0 mg/kg/injection, schedule: Q04DX002 (ip), vehicle: Klucel (hydroxypropylcellulose) (HPC)) 104 % of control; (dose: 100.0 mg/kg/injection, schedule: Q04DX002 (ip), vehicle: Klucel (hydroxypropylcellulose) (HPC)) 100 % of control and 87 % of control.

In the case of `CCCCS(=O)(=O)CCC(N)C(=O)O` (centres undefined), the T/C under setting [5] is 94 % of control and the T/C under setting [6] is 90 % of control.

With `CCOC(=O)N[C@H]1CCc2cc(O)c(OC)c(OC)c2-c2ccc(SC)c(=O)cc21`, the T/C is 120 % of control (dose: 1.25 mg/kg/injection, schedule: Q01DX009 (ip), vehicle: Klucel (hydroxypropylcellulose) (HPC)) and 109 % of control (dose: 10.0 mg/kg/injection, schedule: Q01DX009 (ip), vehicle: Klucel (hydroxypropylcellulose) (HPC)).

`CCN(CC)CCOc1ccc(N(CCCl)CCCl)cc1`: the T/C was 117 % of control (dose: 3.13 mg/kg/injection, schedule: Q04DX003 (ip), vehicle: Klucel (hydroxypropylcellulose) (HPC)); 153 % of control and 168 % of control (dose: 12.5 mg/kg/injection, schedule: Q04DX003 (ip), vehicle: Klucel (hydroxypropylcellulose) (HPC)); 90 % of control (dose: 25.0 mg/kg/injection, schedule: Q04DX003 (ip), vehicle: Klucel (hydroxypropylcellulose) (HPC)).

As to `CC(C)=CN=Cc1nc(Cc2ccccc2)oc1O`, the T/C was 105 % of control under setting [5]; 96 % of control under setting [6]; 94 % of control (dose: 240.0 mg/kg/injection, schedule: Q01DX005 (ip), vehicle: saline with Tween-80).

As for `O=NN(CCCl)C(=O)Nc1cc(Cl)ccc1O`, the T/C reads like this: under setting [4], 150 % of control; (dose: 50.0 mg/kg/injection, schedule: Q04DX003 (ip), vehicle: saline with Tween-80) 122 % of control.

On to `CN(C)c1ccc2nc3ccc(=[N+](C)C)c([N+](=O)[O-])c-3sc2c1`, for which the T/C reads like this: (dose: 15.0 mg/kg/injection, schedule: Q01DX005 (ip), vehicle: saline) 105 % of control; (dose: 30.0 mg/kg/injection, schedule: Q01DX005 (ip), vehicle: saline) 100 % of control; under setting [1], 116 % of control; under setting [2], 100 % of control.

For the molecule `O=[N+]([O-])c1cccc(Cl)c1C(Nc1nncs1)Nc1nncs1`, the T/C is 96 % of control (dose: 60.0 mg/kg/injection, schedule: Q01DX005 (ip), vehicle: Klucel (hydroxypropylcellulose) (HPC)); 106 % of control (dose: 120.0 mg/kg/injection, schedule: Q01DX005 (ip), vehicle: Klucel (hydroxypropylcellulose) (HPC)); 118 % of control (dose: 240.0 mg/kg/injection, schedule: Q01DX005 (ip), vehicle: Klucel (hydroxypropylcellulose) (HPC)).

In the case of `O=C1CC2(CCCC2)CC(=O)N1c1ccc(O)c(CN2CCCCC2)c1`, the T/C by setting is: (dose: 50.0 mg/kg/injection, schedule: Q01DX009 (ip), vehicle: Klucel (hydroxypropylcellulose) (HPC)) 105 % of control; (dose: 100.0 mg/kg/injection, schedule: Q01DX009 (ip), vehicle: Klucel (hydroxypropylcellulose) (HPC)) 100 % of control; (dose: 200.0 mg/kg/injection, schedule: Q01DX009 (ip), vehicle: Klucel (hydroxypropylcellulose) (HPC)) 102 % of control.

With `C(=C\c1ccccc1)/c1ccccc1`, the T/C is 100 % of control (dose: 6.25 mg/kg/injection, schedule: Q01DX005 (ip), vehicle: saline); 109 % of control (dose: 12.5 mg/kg/injection, schedule: Q01DX005 (ip), vehicle: saline); 94 % of control (dose: 25.0 mg/kg/injection, schedule: Q01DX005 (ip), vehicle: saline).

For `O=C(O)c1ccnc2ccc3ccccc3c12`, the T/C is 93 % of control under setting [1], 109 % of control under setting [2] and 118 % of control under setting [3].

Turning to `CC(=O)OCC1(C)ON=C2CCCCC21` (centres undefined), the T/C runs as follows: (dose: 100.0 mg/kg/injection, schedule: Q01DX001 (ip), vehicle: saline with Tween-80) 94 % of control; (dose: 200.0 mg/kg/injection, schedule: Q01DX001 (ip), vehicle: saline with Tween-80) 104 % of control; (dose: 400.0 mg/kg/injection, schedule: Q01DX001 (ip), vehicle: saline with Tween-80) 94 % of control.

Take `CNC(=O)OCc1cnc2ccc(OC)cc2c1COC(=O)NC`: the T/C was 92 % of control (dose: 50.0 mg/kg/injection, schedule: Q01DX005 (ip), vehicle: Klucel (hydroxypropylcellulose) (HPC)); 99 % of control (dose: 100.0 mg/kg/injection, schedule: Q01DX005 (ip), vehicle: Klucel (hydroxypropylcellulose) (HPC)); 102 % of control (dose: 200.0 mg/kg/injection, schedule: Q01DX005 (ip), vehicle: Klucel (hydroxypropylcellulose) (HPC)).

In the case of `C1=NCCCN2CCCCC12` (centres undefined), the T/C by setting is: (dose: 20.0 mg/kg/injection, schedule: Q01DX009 (ip), vehicle: saline) 98 % of control; (dose: 40.0 mg/kg/injection, schedule: Q01DX009 (ip), vehicle: saline) 93 % of control.
